Here are results for twelve compounds from patent publication US20240374598A1, “INHIBITORS OF HUMAN IMMUNODEFICIENCY VIRUS REPLICATION” (ViiV HEALTHCARE UK (NO.5) LIMITED, priority 2018, published 2024).

Data set [1] concerns recombinant NL4-3 virus (nef section replaced with Renilla luciferase gene) in MT-2 cells. The data set is described as follows: HIV cell culture assay (antiviral activity, luciferase readout). The settings on record: NL43, MT-2 cells infected for 4-5 days with recombinant NL4-3 Renilla luciferase virus. It counts as cell-based. As for the experimental part: HIV cell culture assay—MT-2 cells, 293T cells and the proviral DNA clone of NL4-3 virus were obtained from the NIH AIDS Research and Reference Reagent Program. MT-2 cells were propagated in RPMI 1640 media supplemented with 10% heat inactivated fetal bovine serum (FBS), […]. The 293T cells were propagated in DMEM media supplemented with 10% heat inactivated FBS, […]. A recombinant NL4-3 proviral clone, in which a section of the nef gene was replaced with the Renilla luciferase gene, was used to make the reference virus used in these studies. The recombinant virus was prepared through transfection of the recombinant NL4-3 proviral clone into 293T cells using Transit-293 Transfection Reagent from Mirus Bio LLC (Madison, WI). Supernatent was harvested after 2-3 days and the amount of virus present was titered in MT-2 cells using luciferase enzyme activity as a marker by measuring luciferase enzyme activity. Luciferase was quantitated using the EnduRen Live Cell Substrate from Promega (Madison, WI). Antiviral activities of compounds toward the recombinant virus were quantified by measuring luciferase activity in MT-2 cells infected for 4-5 days with the recombinant virus in the presence of serial dilutions of the compound.
The 50% effective concentration (EC50) was calculated by using the exponential form of the median effect equation where (Fa)=1/[1+(ED50/drug conc.)m] (Johnson VA, Byington RT. Infectivity Assay. In Techniques in HIV Research. ed. Aldovini A, Walker BD. 71-76. New York: Stockton Press. 1990). The 50% inhibitory concentration (EC50) was calculated by using the exponential form of the median effect equation where percent inhibition=1/[1+(EC50/drug concentration)m], where m is a parameter that reflects the slope of the concentration-response curve.

Data set [2] in a line: Compound cytotoxicity, XTT-based colorimetric assay. It counts as cell-based. As to conditions: human; uninfected MT2 cells, day 4, XTT assay. As for the experimental part: Compound cytotoxicity and the corresponding CC50 values were determined using the same protocol as described in the antiviral assay except that uninfected cells were used. Cytotoxicity was assessed on day 4 in uninfected MT2 cells by using a XTT (2,3-bis[2-Methoxy-4-nitro-5-sulfophenyl]-2H-tetrazolium-5-carboxyanilide inner salt)-based colorimetric assay (Sigma-Aldrich, St Louis, Mo).
In general terms: Tetrazolium assays rely on reduction of a dye to a coloured formazan, in cell work by metabolically active cells.

Where only a bound is given, the exact number is not on record here.

Regarding `Cn1nc(NS(C)(=O)=O)c2c(Cl)ccc(-n3c([C@H](Cc4cc(F)cc(F)c4)NC(=O)Cn4nc(C(F)F)c5c4C(F)(F)[C@@H]4C[C@H]54)nc4cc(OCCCF)ccc4c3=O)c21` [Example 9, N—((S)-1-(3-(4-chloro-1-methyl-3-(methylsulfonamido)-1H-indazol-7-yl)-7-(3-fluoropropoxy)-4-oxo-3,4-dihydroquinazolin-2-yl)-2-(3,5-difluorophenyl)ethyl)-2-((3bS,4aR)-3-(difluoromethyl)-5,5-difluoro-3b,4,4a,5-tetrahydro-1H-cyclopropa[3,4]cyclopenta[1,2-c]pyrazol-1-yl)acetamide], the 50% effective concentration (EC50) in data set [1] was determined as 0.049 nM. In data set [2], the CC50 at 4 day was above 1000 nM.

As for `CCCc1ccc2c(=O)n(-c3ccc(Cl)c4c(NS(C)(=O)=O)nn(C)c34)c([C@H](Cc3cc(F)cc(F)c3)NC(=O)Cn3nc(C(F)F)c4c3C(F)(F)[C@@H]3C[C@H]43)nc2c1` [Example 19, N—((S)-1-(3-(4-chloro-1-methyl-3-(methylsulfonamido)-1H-indazol-7-yl)-4-oxo-7-propyl-3,4-dihydroquinazolin-2-yl)-2-(3,5-difluorophenyl)ethyl)-2-((3bS,4aR)-3-(difluoromethyl)-5,5-difluoro-3b,4,4a,5-tetrahydro-1H-cyclopropa[3,4]cyclopenta[1,2-c]pyrazol-1-yl)acetamide], the EC50 in data set [1] was found to be 0.063 nM. The CC50 at 4 day in data set [2] is above 1000 nM.

Consider `Cn1nc(NS(C)(=O)=O)c2c(Cl)ccc(-n3c([C@H](Cc4cc(F)cc(F)c4)NC(=O)Cn4nc(C(F)F)c5c4C(F)(F)[C@@H]4C[C@H]54)nc4cc(CCC(F)(F)F)ccc4c3=O)c21` [Example 21, N—((S)-1-(3-(4-chloro-1-methyl-3-(methylsulfonamido)-1H-indazol-7-yl)-4-oxo-7-(3,3,3-trifluoropropyl)-3,4-dihydroquinazolin-2-yl)-2-(3,5-difluorophenyl)ethyl)-2-((3bS,4aR)-3-(difluoromethyl)-5,5-difluoro-3b,4,4a,5-tetrahydro-1H-cyclopropa[3,4]cyclopenta[1,2-c]pyrazol-1-yl)acetamide], for which the EC50 in data set [1] was found to be 0.122 nM. In data set [2], this compound yielded a CC50 at 4 day above 1000 nM.

On to `CC(C)(C)c1ccc2c(=O)n(-c3ccc(Cl)c4c(NS(C)(=O)=O)nn(CC(F)(F)F)c34)c([C@H](Cc3cc(F)cc(F)c3)NC(=O)Cn3nc(C(F)F)c4c3C(F)(F)[C@@H]3C[C@H]43)nc2c1` [Example 28, N—((S)-1-(7-(tert-butyl)-3-(4-chloro-3-(methylsulfonamido)-1-(2,2,2-trifluoroethyl)-1H-indazol-7-yl)-4-oxo-3,4-dihydroquinazolin-2-yl)-2-(3,5-difluorophenyl)ethyl)-2-((3bS,4aR)-3-(difluoromethyl)-5,5-difluoro-3b,4,4a,5-tetrahydro-1H-cyclopropa[3,4]cyclopenta[1,2-c]pyrazol-1-yl)acetamide], for which, in data set [2], the CC50 at 4 day was above 1000 nM.

Take `CS(=O)(=O)Nc1nn(CC(F)F)c2c(-n3c([C@H](Cc4cc(F)cc(F)c4)NC(=O)Cn4nc(C(F)F)c5c4C(F)(F)[C@@H]4C[C@H]54)nc4cc(CCC(F)(F)F)ccc4c3=O)ccc(Cl)c12` [Example 23, N—((S)-1-(3-(4-chloro-1-(2,2-difluoroethyl)-3-(methylsulfonamido)-1H-indazol-7-yl)-4-oxo-7-(3,3,3-trifluoropropyl)-3,4-dihydroquinazolin-2-yl)-2-(3,5-difluorophenyl)ethyl)-2-((3bS,4aR)-3-(difluoromethyl)-5,5-difluoro-3b,4,4a,5-tetrahydro-1H-cyclopropa[3,4]cyclopenta[1,2-c]pyrazol-1-yl)acetamide]: the EC50 in data set [1] was 0.094 nM. In data set [2], this compound displayed a CC50 at 4 day above 1000 nM.

Take `Cn1nc(NS(C)(=O)=O)c2c(Cl)ccc(-n3c([C@H](Cc4cc(F)cc(F)c4)NC(=O)Cn4nc(C(F)F)c5c4C(F)(F)[C@@H]4C[C@H]54)nc4cc(C5CCCC5)ccc4c3=O)c21` [Example 32, N—((S)-1-(3-(4-chloro-1-methyl-3-(methylsulfonamido)-1H-indazol-7-yl)-7-cyclopentyl-4-oxo-3,4-dihydroquinazolin-2-yl)-2-(3,5-difluorophenyl)ethyl)-2-((3bS,4aR)-3-(difluoromethyl)-5,5-difluoro-3b,4,4a,5-tetrahydro-1H-cyclopropa[3,4]cyclopenta[1,2-c]pyrazol-1-yl)acetamide]: in data set [1], the EC50 came to 0.285 nM. Moreover, in data set [2], the CC50 at 4 day was above 1000 nM.

For the compound `CC(F)(F)c1ccc2c(=O)n(-c3ccc(Cl)c4c(NS(=O)(=O)C5CC5)nn(CC(F)F)c34)c([C@H](Cc3cc(F)cc(F)c3)NC(=O)Cn3nc(C(F)F)c4c3C(F)(F)[C@@H]3C[C@H]43)nc2c1` [Example 18, N—((S)-1-(3-(4-chloro-3-(cyclopropanesulfonamido)-1-(2,2-difluoroethyl)-1H-indazol-7-yl)-7-(1,1-difluoroethyl)-4-oxo-3,4-dihydroquinazolin-2-yl)-2-(3,5-difluorophenyl)ethyl)-2-((3bS,4aR)-3-(difluoromethyl)-5,5-difluoro-3b,4,4a,5-tetrahydro-1H-cyclopropa[3,4]cyclopenta[1,2-c]pyrazol-1-yl)acetamide], the concentration giving a half-maximal response (EC50) in data set [1] came to 0.069 nM. The compound further gave a CC50 at 4 day in data set [2] above 1000 nM.

Turning to `CS(=O)(=O)Nc1nn(CC(F)F)c2c(-n3c([C@H](Cc4cc(F)cc(F)c4)NC(=O)Cn4nc(C(F)F)c5c4C(F)(F)[C@@H]4C[C@H]54)nc4cc(C5CC5)ccc4c3=O)ccc(Cl)c12` [Example 30, N—((S)-1-(3-(4-chloro-1-(2,2-difluoroethyl)-3-(methylsulfonamido)-1H-indazol-7-yl)-7-cyclopropyl-4-oxo-3,4-dihydroquinazolin-2-yl)-2-(3,5-difluorophenyl)ethyl)-2-((3bS,4aR)-3-(difluoromethyl)-5,5-difluoro-3b,4,4a,5-tetrahydro-1H-cyclopropa[3,4]cyclopenta[1,2-c]pyrazol-1-yl)acetamide], in data set [1], the EC50 was 0.097 nM. For the same compound, the CC50 at 4 day in data set [2] was above 1000 nM.

Regarding `Cn1nc(NS(C)(=O)=O)c2c(Cl)ccc(-n3c([C@H](Cc4cc(F)cc(F)c4)NC(=O)Cn4nc(C(F)F)c5c4C(F)(F)[C@@H]4C[C@H]54)nc4cc(C5CCCCC5)ccc4c3=O)c21` [Example 34, N—((S)-1-(3-(4-chloro-1-methyl-3-(methylsulfonamido)-H-indazol-7-yl)-7-cyclohexyl-4-oxo-3,4-dihydroquinazoin-2-yl)-2-(3,5-difluorophenyl)ethyl)-2-((3bS,4aR)-3-(difluoromethyl)-5,5-difluoro-3b,4,4a,5-tetrahydro-1H-cyclopropa[3,4]cyclopenta[1,2-c]pyrazol-1-yl)acetamide], in data set [1], the EC50 is 0.597 nM. For the same compound, in data set [2], the CC50 at 4 day is above 1000 nM.

For `COc1ccc2c(=O)n(-c3ccc(Cl)c4c(NS(C)(=O)=O)nn(C)c34)c([C@H](Cc3cc(F)cc(F)c3)NC(=O)Cn3ccc(C4CC4)n3)nc2c1` [Example 6, (S)—N-(1-(3-(4-chloro-1-methyl-3-(methylsulfonamido)-1H-indazol-7-yl)-7-methoxy-4-oxo-3,4-dihydroquinazolin-2-yl)-2-(3,5-difluorophenyl)ethyl)-2-(3-cyclopropyl-1H-pyrazol-1-yl)acetamide], in data set [1], the EC50 was 0.347 nM. In data set [2], this compound yielded a CC50 at 4 day above 1000 nM.

Regarding `CC(C)Oc1ccc2c(=O)n(-c3ccc(Cl)c4c(NS(C)(=O)=O)nn(C)c34)c([C@H](Cc3cc(F)cc(F)c3)NC(=O)Cn3nc(C(F)F)c4c3C(F)(F)[C@@H]3C[C@H]43)nc2c1` [Example 10, N—((S)-1-(3-(4-chloro-1-methyl-3-(methylsulfonamido)-1H-indazol-7-yl)-7-isopropoxy-4-oxo-3,4-dihydroquinazolin-2-yl)-2-(3,5-difluorophenyl)ethyl)-2-((3bS,4aR)-3-(difluoromethyl)-5,5-difluoro-3b,4,4a,5-tetrahydro-1H-cyclopropa[3,4]cyclopenta[1,2-c]pyrazol-1-yl)acetamide], the EC50 in data set [1] came to 0.107 nM. This compound yielded a CC50 at 4 day in data set [2] above 1000 nM.

For the compound `Cn1nc(NS(C)(=O)=O)c2c(Cl)ccc(-n3c([C@H](Cc4cc(F)cc(F)c4)NC(=O)Cn4nc(C(F)F)c5c4C(F)(F)[C@@H]4C[C@H]54)nc4cc(C(F)(F)C(C)(C)C)ccc4c3=O)c21` [Example 29, N—((S)-1-(3-(4-chloro-1-methyl-3-(methylsulfonamido)-1H-indazol-7-yl)-7-(1,1-difluoro-2,2-dimethylpropyl)-4-oxo-3,4-dihydroquinazolin-2-yl)-2-(3,5-difluorophenyl)ethyl)-2-((3bS,4aR)-3-(difluoromethyl)-5,5-difluoro-3b,4,4a,5-tetrahydro-1H-cyclopropa[3,4]cyclopenta[1,2-c]pyrazol-1-yl)acetamide], the EC50 in data set [1] is 0.115 nM. Besides, the CC50 at 4 day in data set [2] was above 1000 nM.

What is called EC50 is the midpoint of the concentration-response curve. What is called CC50 is the concentration that lowers cell viability or growth by half. A low value points to harm at low concentration.
